# Earlier results in patent publication US12691071B2 (SHANGHAI YONSUN BIOTECHNOLOGY CO., LTD., priority 2021, dated 2026).
smiles,measurement,setting,value
"COC[C@@H](NC(C)=O)C(=O)NCc1ccccc1 [Lacosamide, (2R)-2-acetamido-N-benzyl-3-methoxypropanamide]",solubility in acetonitrile or ethanol,acetonitrile or ethanol,slightly soluble
same,solubility in methanol or acetone,methanol or acetone,easily soluble
